{"source": "patent EP0804408B1", "about": "“NOVEL 4-SUBSTITUTED 2,6-DI-TERT-BUTYLPHENOL COMPOUNDS, PHARMACEUTICAL COMPOSITIONS CONTAINING SAME AND PREPARATION METHOD THEREFOR” (priority 1994, dated 1996)", "tested_on": "NO-synthase inductible (iNOS)", "experiment": "iNOS induction test: nitrites in RAW264.7 supernatants by Griess reaction after nitrate reduction", "format": "cell-based, murins", "conditions": "IFNγ + LPS", "from_the_text": "Cette hypothèse a été contrôlée en dosant les nitrites dans des surnageants de culture de macrophages murins de lignées activées en présence de AVF1. Les nitrites ont été dosés par la réaction de Griess après réduction de tous le nitrates grâce à la nitrate réductase de Pseudomonas oleoverans (Granger et al., J. Immunol., 1991, 146, 1294-1302). La spécificité de la réaction a été prouvée par l'emploi d'un inhibiteur spécifique de la synthèse du monoxyde d'azote, la N^G-monométhyl-L-arginine (L-NMMA).\nLe test d'induction iNOS consiste à ensemencer les macrophages RAW264.7 dans des plaques à 24 puits à raison de 1 x 10^6 sous 1,6 ml. Après 24 heures de culture permettant d'obtenir un tapis cellulaire complet, AVF1, dilué de raison 10 dans des des doses ne donnant pas de toxicité cellulaire (de 10^-6 à 10^-8 %), est ajouté dans 100 µl par cupule soit sur des macrophages sans activateur, avec ou sans l'inhibiteur de iNOS (action directe du produit sur les macrophages) soit en présence des inducteurs, avec ou sans inhibiteur (action du produit sur des macrophages activés).\nAprès 24 heures de culture, les surnageants sont prélevés, centrifugés 10 minutes à 100 g à température ambiantes pour éliminer les éventuels débris cellulaires puis utilisés pour le dosage des nitrites.\nDeux volumes des surnageants clarifiés sont réduits en présence d'un volume d'une suspension de Pseudomonas oleovorans à 100 mg/ml et un volume de D-MEM sans rouge de phénol. Après une incubation de 90 minutes à 37°C sans agitation, les mélanges sont centrifugés 5 minutes à 4 000 g pour éliminer les bactéries et dilués au 1/5 et au 1/10 en eau distillée stérile.\n100 µl des échantillons réduits et dilués sont distribués dans des séries de 2 puits dans une plaque ELISA (maxicorp, Nunc.). 200 µl du réactif de Griess (mélange ex-temporané volume à volume des solutions de sulfamide à 1,5 g/100 ml de HCl 1,2 N (87,1 mM) - réactif A - et de naphtylènediamine à 0,15 g/100 ml d'eau stérile (5,78 mM) - réactif B -) sont ajoutés.\nCent autres µl d'échantillon servant de blanc de DO sont distribués et mélangés à 200 µl d'un mélange ex-temporané volume à volume d'eau distillée et du réactif colorimétrique A.\nAprès 30 minutes à température ambiante à l'obscurité, la densité optique (DO) des échantillons est lue à 540 nm au lecteur de plaque pour ELISA.\n• Les contrôles du système d'induction iNOS sont composés de : • . Témoin cellules consistant en des macrophages ne recevant que du milieu de culture. • . Témoin d'induction consistant en des macrophages traités par 100 µl de lipopolysaccharide (LPS à 4 µg/ml, Difco) et par 100 µl d'interféron-γ recombinant (IFN-γ à 1 µU/ml, Boerhinger-Mannheim) afin d'activer la iNOS (Schmidt et al., Mol. Pharmacol., 1992, 41, 614-624). Les solutions mères de LPS et de IFN-γont été conservées respectivement à +4°C et à -20°C avant utilisation. • . Témoin d'inhibition spécifique pour prouver que les nitrites dosés proviennent de l'activation de la iNOS. Il consiste à incorporer à la culture un inhibiteur spécifique, la L-NMMA (N^G-monométhyl-L-arginine, Calbiochem) (Hibbs et al., Science, 1987, 235, 473-476) à des concentrations de raison 10 allant de 3 à 300 µM. Cette solution a été conservée sous parties aliquotes à -20°C avant utilisation. • Les contrôles de la réaction de Greiss sont composés de : • . Une solution de nitrate de sodium qui permet de contrôler l'activité nitrate-réductase des bactéries. • . Une gamme étalon de nitrite de sodium qui permet de doser les nitrites dans les échantillons. • Le blanc de DO de la gamme étalon contenant 100 µl d'eau distillée et 200 µl du mélange des réactifs A et B.", "key": {"[1]": {"conditions": "L-NMMA (300 µM) alone (no AVF1)"}}, "data": [{"smiles": "CNC(=N)NCCC[C@H](N)C(=O)O", "note": "[L-NMMA, N^G-monométhyl-L-arginine, reference compound]", "values": [{"measurement": "Concentration moyenne en nitrites en µM sur 2 échantillons", "setting": "L-NMMA (3 µM) alone (no AVF1)", "value": "20,9 µM"}, {"measurement": "Pourcentage d'inhibition de la production de nitrite", "setting": "L-NMMA (3 µM) alone (no AVF1)", "value": 0, "unit": "%"}, {"measurement": "Concentration moyenne en nitrites en µM sur 2 échantillons", "setting": "L-NMMA (30 µM) alone (no AVF1)", "value": "14,7 µM"}, {"measurement": "Pourcentage d'inhibition de la production de nitrite", "setting": "L-NMMA (30 µM) alone (no AVF1)", "value": 29, "unit": "%"}, {"measurement": "Concentration moyenne en nitrites en µM sur 2 échantillons", "setting": "[1]", "value": "9,3 µM"}, {"measurement": "Pourcentage d'inhibition de la production de nitrite", "setting": "[1]", "value": 55, "unit": "%"}]}]}
